Test results as given in patent publication US7786298B2, “Compounds and methods for nucleic acid mismatch detection” (California Institute of Technology, priority 2006, dated 2010).

System: oligonucleotides containing a central CC mismatch
Assay: Photocleavage testing, denaturing PAGE of 5′-32P-end-labeled oligonucleotides
Format: biochemical
Settings: duplex 1 μM, Rh 1 μM, 20 mM NaCl, 10 mM NaPi, pH 7.1, 30 min, irradiation 5 min (325-450 nm); fully matched and mismatched oligonucleotides
Method: Compounds PEG-RhOG and [Rh(chrysi)(phen)(^PEGbipy)]^3+(i.e., compound A and intermediate 2, respectively, as described above) were used for photocleavage testing. Denaturing PAGE experiments with 5′-32P-end-labeled oligonucleotides containing or lacking a central CC mismatch were employed to test specific site targeting. Duplex DNA (1 μM) was incubated with variable concentrations of compound A (100 nm to 5 μM) for 30 min and then irradiated for 5 min.
Conditions were duplex (1 μM), Rh (1 μM) in 20 mM NaCl, 10 mM NaPi, pH 7.1 for 30 min at ambient temperature followed by irradiation for 5 min with a solar simulator (325-450 nm). Lanes 1, 2, 11, and 12 show Maxam-Gilbert sequencing reactions for matched (1, 2) and mismatched (11, 12) DNA. For matched and mismatched DNA, respectively, lanes 3 and 7 show fragments irradiated with no metal complex; lanes 4 and 8 show fragments with compound A but no irradiation; lanes 5, 6, 9, and 10 show fragments after irradiation in the presence of compound A (5, 9) and intermediate 2 (6, 10). The DNA sequence was 5′-32P-end-labeled-GCGCCGTCGTXCATGTG-3′ (SEQ ID NO:4) where X=C, G with a complement containing a matched or mismatched C at the bold site. The arrow marks the mismatched site.

Substance: [Rh(chrysi)(phen)(^PEGbipy)]^3+ [intermediate 2]
- photocleavage on autoradiogram of denaturing 20% polyacrylamide gel: photocleavage
